Results reported in BindingDB's records for doi:10.7270/Q25719N6 (The Scripps Research Institute Molecular Screening Center, 2013).

Target: T1, Fructose-bisphosphate aldolase (Mycobacterium tuberculosis (strain ATCC 25618 / H37Rv), UniProt P9WQA3)
T1 sequence (P9WQA3 whole entry): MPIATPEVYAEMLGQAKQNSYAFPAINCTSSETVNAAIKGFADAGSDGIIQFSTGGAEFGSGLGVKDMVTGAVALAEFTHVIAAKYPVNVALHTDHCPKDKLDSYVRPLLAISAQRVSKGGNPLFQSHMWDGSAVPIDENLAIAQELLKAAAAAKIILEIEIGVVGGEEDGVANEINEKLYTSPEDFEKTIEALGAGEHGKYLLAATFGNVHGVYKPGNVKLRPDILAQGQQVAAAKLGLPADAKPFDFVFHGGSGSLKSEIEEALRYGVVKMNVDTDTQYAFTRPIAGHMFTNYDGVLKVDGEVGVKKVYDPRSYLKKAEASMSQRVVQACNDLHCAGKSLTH

O=C(NCc1cccc(Cl)c1)C1=C2NS(=O)(=O)C=CN2C=CC1 [MLS002162417]
IC50: 2.61 µM

N#CC1=C(C2CC2)CC(c2ccccc2)C(C#N)C1=N (configuration not stated) [SMR000039375]
IC50: > 10 µM
